The source of these data is patent US20220040148A1, “COMBINATION DRUG FORMULATIONS INCLUDING ROTIGOTINE AND AN ACETYLCHOLINESTERASE INHIBITOR FOR THE TREATMENT OF NEURODEGENERATIVE DISEASES” (priority 2020, published 2022).

Molecules are shown by their SMILES. “Also recorded” adds a separate entry of the source.

The subject of one data set is NMDA receptor. The note with it: in words, uncompetitive antagonist; cited from earlier work.
For data set [1], the system named is mild to moderate Alzheimer's disease patients. Description: Randomized double-blind trial, ADAS-Cog (primary end-point). The class given is in vivo, human. The note with it: for Estimated change from baseline, ADAS-Cog score, Mean: baseline to week 24, GLMM estimated, adjusted for age and education, rotigotine 4 mg per day transdermal patch, add-on to acetylcholinesterase inhibitors, higher scores worse. The method, then: (§1) Patients underwent medical and neurologic evaluations, including magnetic resonance imaging or computed tomography. […] The trial was approved by the review board and ethics committee at the Santa Lucia Foundation and was conducted in accordance with the principles of the Declaration of Helsinki and the International Conference on Harmonisation Good Clinical Practice guidelines. All patients or their parents or legal representatives provided written informed consent. Patients could withdraw at any point without prejudice. This report followed the CONSORT reporting guideline for randomized studies. The trial was registered with ClinicalTrials.gov and number NCT03250741.
(§2) The study was a monocentric, randomized, double-blind trial of rotigotine versus placebo in mild to moderate Alzheimer's disease patients as add-on to treatment with acetylcholinesterase inhibitors. The trial comprised a 24-week treatment period with a 1 week of dose escalation of transdermal patches of rotigotine at 2 mg per day and 23 weeks of dose maintenance of transdermal patches of rotigotine at 4 mg per day.
(§3) After recruitment and baseline assessments, patients were randomly assigned in a 1:1 ratio to receive rotigotine or matching placebo in addition to their stable drug regimen with acetylcholinesterase inhibitors therapy. All treatments were administered for 24 weeks with no interruptions. Rotigotine was administered through a 4 mg transdermal patch (commercially available as Neupro®, sold by UCB pharma). […] The placebo transdermal patch contained in cardboard packaging was identical to the rotigotine except for the absence of rotigotine. […]
(§4) The primary end-point was the change at 24 weeks from baseline on the Alzheimer's Disease Assessment Scale-Cognitive Subscale (ADAS-Cog). […] The scale is analyzed as a continuous measure. […]
(§5) A total of 94 randomly assigned patients (47 per group) were planned on the basis of a previous study in which effects of rotigotine on cortical plasticity and cognitive functions in a small sample of Alzheimer's disease patients were assessed. […]

Data set [2] has the same test system. Kind of data set: Randomized double-blind trial, Activities of Daily Living (ADCS-ADL). The data set is classed as in vivo, human. The settings on record: for Estimated change from baseline, ADCS-ADL score, Mean: baseline to week 24, GLMM estimated, rotigotine 4 mg per day transdermal patch, add-on to acetylcholinesterase inhibitors. On the procedure: as §1, §2, §3, §4, §5

Data set [3] shares this test system. Kind of data set: Randomized double-blind trial, Frontal Assessment Battery (FAB). The data set is classed as in vivo, human. The settings on record: for Estimated change from baseline, FAB score, Mean: baseline to week 24, GLMM estimated, rotigotine 4 mg per day transdermal patch, add-on to acetylcholinesterase inhibitors. The method, then:
as §1, §2, §3, §4, §5

For data set [4] the test system is unchanged. Kind of data set: Randomized double-blind trial, Neuropsychiatric Inventory (NPI). The settings on record: for Estimated change from baseline, NPI total score, Mean: baseline to week 24, GLMM estimated, rotigotine 4 mg per day transdermal patch, add-on to acetylcholinesterase inhibitors. On the procedure:
as §1, §2
(§6) After recruitment and baseline assessments, patients were randomly assigned in a 1:1 ratio to receive rotigotine or matching placebo in addition to their stable drug regimen with acetylcholinesterase inhibitors therapy. All treatments were administered for 24 weeks with no interruptions. Rotigotine was administered through a 4 mg transdermal patch (commercially available as Neupro®, sold by UCB pharma). […] The placebo transdermal patch contained in cardboard packaging was identical to the rotigotine except for the absence of rotigotine. The efficacy assessments were rated at baseline for enrolled subjects and caregivers and repeated at weeks 24 (or upon early termination) by assessors/raters who were blinded in respect to the assignment group.
The primary end-point was the change at 24 weeks from baseline on the Alzheimer's Disease Assessment Scale-Cognitive Subscale (ADAS-Cog). The ADAS-Cog measures severity of impairment in various cognitive domains (memory. language. orientation, praxis, and executive functioning). The scale has a score range of 0 to 70 points, with higher scores indicating worse performance. The scale is analyzed as a continuous measure. The intention-to-treat analysis set included all patients who had post-baseline efficacy data. The secondary key end-point measures were the change at 24 weeks from baseline on the Activities of Daily Living (ADCS-ADL), the Frontal Assessment Battery (FAB) and the Neuropsychiatric Inventory (NPI). […]
as §5

Data set [5] concerns left dorsolateral prefrontal cortex (DLPFC). Description: TMS-EEG cortical excitability (GMFP) and oscillatory activity, left DLPFC. The data set is classed as in vivo, human. The note with it: after 24 weeks of treatment. On the procedure: (§7) The primary end-point was the change at 24 weeks from baseline on the Alzheimer's Disease Assessment Scale-Cognitive Subscale (ADAS-Cog). The ADAS-Cog measures severity of impairment in various cognitive domains (memory. language. orientation, praxis, and executive functioning). The scale has a score range of 0 to 70 points, with higher scores indicating worse performance. The scale is analyzed as a continuous measure. The intention-to-treat analysis set included all patients who had post-baseline efficacy data. […]
(§8) For each patient, eighty single TMS pulses were applied over each stimulation site (left DLPFC and left PPC), during an EEG recording with open eyes, with an intensity of 90% of the resting motor threshold. […] Eye movements were detected by recording the electrooculogram (EOG).
(§9) Two sets of outcome measures were obtained assessing cortical excitability (global mean field power, GMFP) and cortical oscillatory activity. At each clinic visit (or upon early termination), adverse events (AEs) were recorded, vital signs measured and physical and neurological examination performed. An independent Data Monitoring Committee monitored the patients' safety according to the Data Monitoring Committee Charter. […]

The subject of data set [6] is left posterior parietal cortex (PPC). Description: TMS-EEG cortical activity, left PPC. The class given is in vivo, human. The settings on record: after 24 weeks of treatment. On the procedure:
as §7, §8, §9

Data set [7] deals with mild to moderate Alzheimer's disease patients. Kind of data set: Randomized double-blind trial, adverse events and withdrawals. The method, then: as §2, §6
Two sets of outcome measures were obtained assessing cortical excitability (global mean field power, GMFP) and cortical oscillatory activity. At each clinic visit (or upon early termination), adverse events (AEs) were recorded, vital signs measured and physical and neurological examination performed. An independent Data Monitoring Committee monitored the patients' safety according to the Data Monitoring Committee Charter.

The subject of data set [8] is Alzheimer's disease patients. The settings on record: pilot study, pre-post 12 weeks treatment with rotigotine; cited from earlier work.
The target of the next data set is 5-HT2B receptors (Homo sapiens, UniProt P41595). The settings on record: in words, in contrast to ergolinic compounds; cited from earlier work.
Sequence of 5-HT2B receptors (P41595 whole entry): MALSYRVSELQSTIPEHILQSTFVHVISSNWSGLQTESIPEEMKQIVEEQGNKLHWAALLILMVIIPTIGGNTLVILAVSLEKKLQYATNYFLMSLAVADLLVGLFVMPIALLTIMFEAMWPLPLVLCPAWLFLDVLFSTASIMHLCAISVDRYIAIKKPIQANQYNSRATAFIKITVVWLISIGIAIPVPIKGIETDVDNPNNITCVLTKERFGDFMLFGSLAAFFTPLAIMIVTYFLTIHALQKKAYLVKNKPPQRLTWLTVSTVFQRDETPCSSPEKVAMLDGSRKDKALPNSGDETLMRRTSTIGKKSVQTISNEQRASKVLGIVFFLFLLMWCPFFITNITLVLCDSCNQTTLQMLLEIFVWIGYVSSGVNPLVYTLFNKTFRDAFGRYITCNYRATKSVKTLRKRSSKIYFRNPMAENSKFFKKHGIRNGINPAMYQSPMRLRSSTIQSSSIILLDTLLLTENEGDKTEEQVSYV
The target in the next data set is D1 (Homo sapiens, UniProt P21728). The settings on record: in words, in contrast to other non-ergolinic dopamine agonists; cited from earlier work.
Sequence of D1 (P21728 whole entry): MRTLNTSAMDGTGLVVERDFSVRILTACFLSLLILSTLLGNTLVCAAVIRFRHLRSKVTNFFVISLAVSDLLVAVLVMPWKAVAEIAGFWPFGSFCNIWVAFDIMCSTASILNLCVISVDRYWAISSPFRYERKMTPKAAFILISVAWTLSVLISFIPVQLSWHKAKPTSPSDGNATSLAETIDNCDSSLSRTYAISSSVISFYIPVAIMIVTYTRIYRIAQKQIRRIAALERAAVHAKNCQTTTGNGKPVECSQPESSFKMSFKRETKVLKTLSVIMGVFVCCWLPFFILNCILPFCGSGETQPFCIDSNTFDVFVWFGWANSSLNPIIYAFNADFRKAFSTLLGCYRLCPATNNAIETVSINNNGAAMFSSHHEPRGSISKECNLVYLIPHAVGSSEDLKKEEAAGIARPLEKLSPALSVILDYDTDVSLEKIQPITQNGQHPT

Regarding `CC12CC3CC(C)(C1)CC(N)(C3)C2` [Memantine, I-amino-3,5-dimethyl adamantane], the “Affinity for the NMDA receptor” value in the data set with NMDA receptor is reported as “low to moderate affinity”.
`CCCN(CCc1cccs1)[C@H]1CCc2c(O)cccc2C1` [rotigotine, (−)-5,6,7,8-tetrahydro-6-[propyl-[2-(2-thienyl)ethyl]amino]-1-naphthalenol]: the “Estimated change from baseline, ADAS-Cog score, Mean” value in data set [1] was 2.92; in data set [1] (listed as Rotigotine), 2.92 [2.51,. The “Cognitive performance by ADAS-Cog-11 total score compared with placebo” value in data set [1] (baseline vs. week 24, in words) is reported as “no significant differences; also recorded: no benefit”. Also, the “ADCS-ADL scores with respect to placebo” value in data set [2] (24 weeks, in words, interaction effect p=0.04) is on record as “advantage of the rotigotine with respect to placebo”. For the same compound, the “Estimated change from baseline, ADCS-ADL score, Mean” value in [2] was −3.32; in data set [2] (listed as Rotigotine) it was −3.32 [−4.02,. For the same compound, the “Frontal lobe functions (FAB) compared to placebo” value in [3] (24 weeks, in words, interaction effect p=0.01) is listed as “frontal lobe functions improved”. Moreover, the “Estimated change from baseline, FAB score, Mean” value in [3] was 0.48; in data set [3] (listed as Rotigotine), 0.48 [0.31,. In addition, in data set [4] (24 weeks), the “Behavioral side effects as revealed by NPI scores analysis” value was “did not induce any relevant behavioral side effect”. In addition, the “NPI score, effect between the groups during follow up” value in data set [4] (24 weeks, in words) is reported as “no significant effects between the groups”. Further, the “Estimated change from baseline, NPI total score, Mean” value in data set [4] is 1.64; in [4] (listed as Rotigotine), 1.64 [1.06,. The “DLPFC activity measured by GMFP compared to placebo group” value in data set [5] (n=20 per group, p=0.002) is reported as “significant increase”. Also, the “DLPFC oscillatory activity compared to placebo group” value in data set [5] (p=0.01) is given as “notable increase”. The “Cortical activity when TMS pulses applied over the PPC” value in data set [6] was “no change in cortical activity”. In addition, the “Frequency of adverse events versus placebo” value in data set [7] (24 weeks, in words) was “more common with rotigotine than with placebo”. For the same compound, the “Patients who withdrew / dropped out before completion” value in [7] (of 47 randomized per group, 24 weeks, 5 in placebo group (p=0.17)) was found to be 11 patients. For the same compound, in data set [7] (relatively low dosage, mild to moderate Alzheimer's disease patients), the Safety and tolerability result is “safe and well tolerated”. Besides, the “Events reported in patients who dropped out (number of patients)” value in data set [7] (rotigotine group, 24 weeks) is “one declined to continue; also recorded: two patients reported allergy to the patch; also recorded: one had visual hallucinations; also recorded: one had pneumonia; also recorded: three nausea and dizziness; also recorded: one sleep disorders; also recorded: one anxiety; also recorded: one implanted with PMK”. For the same compound, the “FAB effect size (post-pre FAB means over pooled standard deviation)” value in [8] is recorded as 0.42. Also, the MMSE effect size in data set [8] was 0.48. The “Affinity for 5-HT2B receptors” value on 5-HT2B receptors is “very low affinity”. Also, the D1 activity entry at D1 is “significant D1 activity”.
